Source: the supplement of paper PMC11061612

Tests used:
SN-38 = compound: CCc1c2c(nc3ccc(O)cc13)-c1cc3c(c(=O)n1C2)COC(=O)[C@]3(O)CC [SN-38]; conditions: max 0.3 µM
Outline: (§1)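 Cancer cell lines were seeded in 1536-well plates in 7.5 μl DMEM/F12 or RPMI with 10% FBS, held 24 hours at 37°C and 5% CO2, then dosed for 72 hours (final DMSO typically 0.2%). Viability was read by CellTiter-Glo 2.0 luminescence and scaled between blank-well and DMSO-well means. The single-agent IC50 comes from dose responses fitted to a two-parameter logistic curve with a non-linear mixed effects model.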

SRA737 = compound: N#Cc1cnc(Nc2cc(NC[C@H]3CNCCO3)c(C(F)(F)F)cn2)cn1 [SRA737]; conditions: max 10 µM
Outline: as §1

AZD2811 = compound: CCN(CCO)CCCOc1ccc2c(Nc3cc(CC(=O)Nc4cccc(F)c4)[nH]n3)ncnc2c1 [AZD2811]; conditions: max 1 µM
Outline: as §1

Olaparib = compound: O=C(c1cc(Cc2n[nH]c(=O)c3ccccc23)ccc1F)N1CCN(C(=O)C2CC2)CC1 [Olaparib]; conditions: max 10 µM
Outline: as §1

AZD5153 = compound: COc1nnc2ccc(N3CCC(c4ccc(OCCN5CCN(C)C(=O)[C@H]5C)cc4)CC3)nn12 [AZD5153]; conditions: max 1 µM
Outline: as §1

AZD8186 = compound: C[C@@H](Nc1cc(F)cc(F)c1)c1cc(C(=O)N(C)C)cc2c(=O)cc(N3CCOCC3)oc12 [AZD8186]; conditions: max 10 µM
Outline: as §1

AZD6738 = compound: C[C@@H]1COCCN1C2=NC(=NC(=C2)C3(CC3)[S@](=N)(=O)C)C4=C5C=CNC5=NC=C4 [AZD6738]; conditions: max 10 µM
Outline: as §1

MK-2206 = compound: NC1(c2ccc(-c3nc4ccn5c(=O)[nH]nc5c4cc3-c3ccccc3)cc2)CCC1 [MK-2206]; conditions: max 10 µM
Outline: as §1

AZD5991 = compound: Cc1c2c(nn1C)CSCc1cc(n(C)n1)CSc1cc(c3ccccc3c1)OCCCc1c(C(=O)O)n(C)c3c-2c(Cl)ccc13 [AZD5991]; conditions: max 1 µM
Outline: as §1

AZD4320 = compound: CN(CC[C@H](CSC1=CC=CC=C1)NC2=C(C=C(C=C2)S(=O)(=O)NC(=O)C3=CC=C(C=C3)N4CCC(CC4)[C@H](C5=CC=CC=C5C6=CC=C(C=C6)Cl)O)S(=O)(=O)C(F)(F)F)CCO [AZD4320]; conditions: max 1 µM
Outline: as §1

[1] = compound: O=C(Nc1ccc2[nH]nc(-c3ccncc3)c2c1)[C@@H]1CCN(CC(=O)N2CCN(c3ccc(-c4ncccn4)cc3)CC2)C1; conditions: max 5 µM
Outline: as §1

Palbociclib = compound: CC(=O)c1c(C)c2cnc(Nc3ccc(N4CCNCC4)cn3)nc2n(C2CCCC2)c1=O [Palbociclib]; conditions: max 10 µM
Outline: as §1

AZD1390 = compound: CC(C)n1c(=O)n(C)c2cnc3cc(F)c(-c4ccc(OCCCN5CCCCC5)nc4)cc3c21 [AZD1390]; conditions: max 0.3 µM
Outline: as §1

Crizotinib = compound: C[C@@H](Oc1cc(-c2cnn(C3CCNCC3)c2)cnc1N)c1c(Cl)ccc(F)c1Cl [Crizotinib]; conditions: max 10 µM
Outline: as §1

Doxorubicin = compound: COc1cccc2c1C(=O)c1c(O)c3c(c(O)c1C2=O)C[C@@](O)(C(=O)CO)C[C@@H]3O[C@H]1C[C@H](N)[C@H](O)[C@H](C)O1 [Doxorubicin]; conditions: max 1 µM
Outline: as §1

Carboplatin = compound: C1CC(C1)(C(=O)[O-])C(=O)[O-].N.N.[Pt+2] [Carboplatin]; conditions: max 10 µM
Outline: as §1

AZD1775 = compound: C=CCn1c(=O)c2cnc(Nc3ccc(N4CCN(C)CC4)cc3)nc2n1-c1cccc(C(C)(C)O)n1 [AZD1775]; conditions: max 3 µM
Outline: as §1

Trametinib = compound: CC(=O)Nc1cccc(-n2c(=O)n(C3CC3)c(=O)c3c(Nc4ccc(I)cc4F)n(C)c(=O)c(C)c32)c1 [Trametinib]; conditions: max 1 µM
Outline: as §1

Lapatinib = compound: CS(=O)(=O)CCNCc1ccc(-c2ccc3ncnc(Nc4ccc(OCc5cccc(F)c5)c(Cl)c4)c3c2)o1 [Lapatinib]; conditions: max 10 µM
Outline: as §1

Etoposide = compound: COc1cc([C@@H]2c3cc4c(cc3[C@@H](O[C@@H]3O[C@@H]5CO[C@@H](C)O[C@H]5[C@H](O)[C@H]3O)[C@H]3COC(=O)[C@H]23)OCO4)cc(OC)c1O [Etoposide]; conditions: max 10 µM
Outline: as §1

Taselisib = compound: Cc1nc(-c2cn3c(n2)-c2ccc(-c4cnn(C(C)(C)C(N)=O)c4)cc2OCC3)n(C(C)C)n1 [Taselisib]; conditions: max 10 µM
Outline: as §1

Alisertib = compound: COc1cc(Nc2ncc3c(n2)-c2ccc(Cl)cc2C(c2c(F)cccc2OC)=NC3)ccc1C(=O)O [Alisertib]; conditions: max 10 µM
Outline: as §1

AZD0156 = compound: CN(C)CCCOc1ccc(-c2ccc3ncc4c(c3c2)n(C2CCOCC2)c(=O)n4C)cn1 [AZD0156]; conditions: max 3 µM
Outline: as §1

Paclitaxel = compound: CC(=O)O[C@H]1C(=O)[C@@]2(C)[C@H]([C@H](OC(=O)c3ccccc3)[C@]3(O)C[C@H](OC(=O)[C@H](O)[C@@H](NC(=O)c4ccccc4)c4ccccc4)C(C)=C1C3(C)C)[C@]1(OC(C)=O)CO[C@@H]1C[C@@H]2O [Paclitaxel]; conditions: max 3 µM
Outline: as §1

Selumetinib = compound: Cn1cnc2c(F)c(Nc3ccc(Br)cc3Cl)c(C(=O)NOCCO)cc21 [Selumetinib]; conditions: max 10 µM
Outline: as §1

SG3199 = compound: CC1=CN2[C@@H](C1)C=NC3=CC(=C(C=C3C2=O)OC)OCCCCCOC4=C(C=C5C(=C4)N=C[C@@H]6CC(=CN6C5=O)C)OC [SG3199]; conditions: max 0.001 µM
Outline: as §1

Prexasertib = compound: COc1cccc(OCCCN)c1-c1cc(Nc2cnc(C#N)cn2)n[nH]1 [Prexasertib]; conditions: max 1 µM
Outline: as §1

Savolitinib = compound: C[C@@H](c1ccc2nccn2c1)n1nnc2ncc(-c3cnn(C)c3)nc21 [Savolitinib]; conditions: max 1 µM
Outline: as §1

AZD7648 = compound: Cc1cc2ncnn2cc1Nc1ncc2c(n1)n(C1CCOCC1)c(=O)n2C [AZD7648]; conditions: max 10 µM
Outline: as §1

Dasatinib = compound: CC1=C(C(=CC=C1)Cl)NC(=O)C2=CN=C(S2)NC3=CC(=NC(=N3)C)N4CCN(CC4)CCO [Dasatinib]; conditions: max 2 µM
Outline: as §1

Gemcitabine = compound: Nc1ccn([C@@H]2O[C@H](CO)[C@@H](O)C2(F)F)c(=O)n1 [Gemcitabine]; conditions: max 0.3 µM
Outline: as §1

Venetoclax = compound: CC1(C)CCC(CN2CCN(c3ccc(C(=O)NS(=O)(=O)c4ccc(NCC5CCOCC5)c([N+](=O)[O-])c4)c(Oc4cnc5[nH]ccc5c4)c3)CC2)=C(c2ccc(Cl)cc2)C1 [Venetoclax]; conditions: max 1 µM
Outline: as §1

AZD5363 = compound: C1CN(CCC1(C(=O)N[C@@H](CCO)C2=CC=C(C=C2)Cl)N)C3=NC=NC4=C3C=CN4 [AZD5363]; conditions: max 10 µM
Outline: as §1

5-Fluorouracil = compound: O=c1[nH]cc(F)c(=O)[nH]1 [5-Fluorouracil]; conditions: max 20 µM
Outline: as §1

Gefitinib = compound: COc1cc2ncnc(Nc3ccc(F)c(Cl)c3)c2cc1OCCCN1CCOCC1 [Gefitinib]; conditions: max 10 µM
Outline: as §1

Cell Line | IC50, cell viability 72 h (SN-38) [nM] | IC50, cell viability 72 h (SRA737) [nM] | IC50, cell viability 72 h (AZD2811) [nM] | IC50, cell viability 72 h (Olaparib) [nM] | IC50, cell viability 72 h (AZD5153) [nM] | IC50, cell viability 72 h (AZD8186) [nM] | IC50, cell viability 72 h (AZD6738) [nM] | IC50, cell viability 72 h (MK-2206) [nM] | IC50, cell viability 72 h (AZD5991) [nM] | IC50, cell viability 72 h (AZD4320) [nM] | IC50, cell viability 72 h [1] [nM] | IC50, cell viability 72 h (Palbociclib) [nM] | IC50, cell viability 72 h (AZD1390) [nM] | IC50, cell viability 72 h (Crizotinib) [nM] | IC50, cell viability 72 h (Doxorubicin) [nM] | IC50, cell viability 72 h (Carboplatin) [nM] | IC50, cell viability 72 h (AZD1775) [nM] | IC50, cell viability 72 h (Trametinib) [nM] | IC50, cell viability 72 h (Lapatinib) [nM] | IC50, cell viability 72 h (Etoposide) [nM] | IC50, cell viability 72 h (Taselisib) [nM] | IC50, cell viability 72 h (Alisertib) [nM] | IC50, cell viability 72 h (AZD0156) [nM] | IC50, cell viability 72 h (Paclitaxel) [nM] | IC50, cell viability 72 h (Selumetinib) [nM] | IC50, cell viability 72 h (SG3199) [nM] | IC50, cell viability 72 h (Prexasertib) [nM] | IC50, cell viability 72 h (Savolitinib) [nM] | IC50, cell viability 72 h (AZD7648) [nM] | IC50, cell viability 72 h (Dasatinib) [nM] | IC50, cell viability 72 h (Gemcitabine) [nM] | IC50, cell viability 72 h (Venetoclax) [nM] | IC50, cell viability 72 h (AZD5363) [nM] | IC50, cell viability 72 h (5-Fluorouracil) [nM] | IC50, cell viability 72 h (Gefitinib) [nM]
MDA-MB-175-VII (Breast Carcinoma) | 110 | > 10000 | > 1000 | > 10000 | > 1000 | > 10000 | > 10000 | 3990 | > 1000 | > 1000 | 794 | > 10000 | > 300 | > 10000 | > 1000 | > 10000 | > 3000 | 463 | 514 | > 10000 | 1790 | > 10000 | > 3000 | > 3000 | > 10000 | > 1 | > 1000 | > 1000 | > 10000 | > 2000 | > 300 | > 1000 | 4360 | > 20000 | 1150
MG-63 (Osteosarcoma) | 10.8 | > 10000 | > 1000 | > 10000 | 256 | 6320 | > 10000 | > 10000 | > 1000 | > 1000 | 4710 | > 10000 | > 300 | 7070 | > 1000 | > 10000 | 2810 | > 1000 | > 10000 | > 10000 | 1770 | 2030 | > 3000 | 8.23 | > 10000 | > 1 | 72.7 | > 1000 | > 10000 | 354 | 47.3 | > 1000 | 6890 | > 20000 | > 10000
MRK-nu-1 (Breast Carcinoma) | 35.2 | > 10000 | 816 | > 10000 | > 1000 | > 10000 | 9310 | > 10000 | 46.7 | > 1000 | > 5000 | > 10000 | > 300 | > 10000 | 629 | > 10000 | 1660 | > 1000 | > 10000 | 6130 | > 10000 | 3630 | > 3000 | 4.68 | > 10000 | > 1 | 220 | > 1000 | > 10000 | > 2000 | 95.7 | > 1000 | > 10000 | 18400 | > 10000
